Source: publication PMC3723878 (PLoS ONE, 2013)
Numbering of substitutions follows the chain as printed.

Columns and labels:
[1] = biological target: T1, human α1A-AR F312A variant (Homo sapiens, UniProt P35348, F312A); assay: Saturation binding of ^125I-HEAT
T1 construct: expressed in transfected cells; host or cells: COS-7 (transient, calcium phosphate), membranes
T1 sequence (P35348 1-466 F312A): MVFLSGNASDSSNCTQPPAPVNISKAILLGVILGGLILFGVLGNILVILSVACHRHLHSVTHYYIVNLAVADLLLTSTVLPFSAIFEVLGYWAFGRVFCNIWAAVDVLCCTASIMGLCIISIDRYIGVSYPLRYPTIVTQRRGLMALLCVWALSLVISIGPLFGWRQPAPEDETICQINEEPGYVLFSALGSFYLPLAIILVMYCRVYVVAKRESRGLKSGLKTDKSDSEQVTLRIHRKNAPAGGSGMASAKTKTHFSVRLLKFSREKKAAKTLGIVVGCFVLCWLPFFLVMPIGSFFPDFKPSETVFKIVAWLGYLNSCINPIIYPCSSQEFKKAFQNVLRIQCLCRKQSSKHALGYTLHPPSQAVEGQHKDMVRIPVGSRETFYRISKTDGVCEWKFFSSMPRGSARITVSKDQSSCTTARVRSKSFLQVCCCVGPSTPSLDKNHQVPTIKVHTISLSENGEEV

[2] = biological target: T2, human α1A-AR F281A variant (Homo sapiens, UniProt P35348, F281A); assay: Saturation binding of ^125I-HEAT
T2 construct: expressed in transfected cells; host or cells: COS-7, transient (calcium phosphate)
T2 sequence (P35348 1-466 F281A): T1 sequence (P35348 1-466 F312A) with F281A, A312F

[3] = biological target: T3, α1A-AR (Homo sapiens, UniProt P35348); design: expressed in transfected cells; method as in PMID 20978120; conditions: CHO cells used for Ca^2+ release experiments; cited from earlier work
T3 sequence (P35348 1-466): T1 sequence (P35348 1-466 F312A) with A312F

**Q.** Which results are given for `O=C1c2ccccc2CCC1CNCCc1ccc(O)c([125I])c1` (centres unmarked) [125I-HEAT]?
**A.** ^125I-HEAT Ratio (loss of affinity relative to WT) ([1]; F312A): 0.44; ^125I-HEAT pKd ([1]; F312A (7.39), saturation binding, n = 3–6): 10.40±0.10; ^125I-HEAT Ratio (loss of affinity relative to WT) ([2]; F281A): 3.9; ^125I-HEAT pKd ([2]; F281A (6.44), saturation binding, n = 3–6): 9.46±0.09; pKD [3]: 9.2±0.09
